Reference: publication PMC11561307, “Ultra-inert lanthanide chelates as mass tags for multiplexed bioanalysis” (Nature Communications, 2024)

Test: Kinetic inertness: acid-assisted dechelation in excess HCl
Type: physicochemical
Conditions: for half-life / half-life, h: Figure 2A; for t½ (0.1 M HCl, 80 °C) / t½ (1.0 M HCl, 80 °C) / t½ (6.0 M HCl, 80 °C) / t½ (0.1 M HCl, 25 °C): dechelation half-life, HPLC-UV after 1 h, 1 day, 1 week, 1 month, ± error of the fit; for t½ (0.1 M HCl, 80 °C) / t½ (0.1 M HCl, 25 °C): 0.5 mM chelate in 0.1 M HCl; for t½ (0.1 M HCl, 80 °C) / t½ (1.0 M HCl, 80 °C) / t½ (0.1 M HCl, 25 °C): exponential decay fit; for t½ (1.0 M HCl, 80 °C): 0.5 mM chelate in 1.0 M HCl; for t½ (6.0 M HCl, 80 °C): 0.5 mM chelate in 6.0 M HCl, fit y = exp(−x/t), t½ = ln(2) × t; for abundance of intact chelate: section above Supp. Fig 16, head with acid, temperature and time not given

Row | Compound | half-life (0.1 M HCl, 25 °C) [days] | half-life, h (0.1 M HCl, 80 °C) | half-life, h (1.0 M HCl, 80 °C) | half-life, h (6.0 M HCl, 80 °C) | t½ (0.1 M HCl, 80 °C) (80 °C) | t½ (1.0 M HCl, 80 °C) (80 °C) | t½ (6.0 M HCl, 80 °C) (80 °C) | abundance of intact chelate [%] | half-life, h (0.1 M HCl, 25 °C) | half-life (1.0 M HCl, 80 °C) [days] | half-life (6.0 M HCl, 80 °C) [days] | t½ (0.1 M HCl, 25 °C) (25 °C) | half-life (0.1 M HCl, 80 °C) [days]
1 | O=C([O-])CN1CCN2CCN(CC(=O)[O-])CCN(CC1)Cc1cccc(n1)-c1cnnn1Cc1cc(-c3ccccc3)cc(n1)C2.[Ce+3] [Ph{Ce}] | 0.688 | too unstable | too unstable | too unstable | too unstable | too unstable | too unstable | – | – | – | – | – | –
2 | O=C([O-])CN1CCN2CCN(CC(=O)[O-])CCN(CC1)Cc1cccc(n1)-c1cn(nn1)Cc1cc(-c3ccccc3)cc(n1)C2.[Lu+3] [1,4-cz-[Lu(PhL1)]] | – | – | – | – | too unstable | too unstable | too unstable | 98.7 | – | – | – | – | –
3 | O=C([O-])CN1CCN2CCN(CC(=O)[O-])CCN(CC1)Cc1cccc(n1)-c1cnnn1Cc1cc(-c3ccccc3)cc(n1)C2.[Er+3] [Ph{Er}] | – | too stable | – | – | too stable | – | – | 100.0 | too stable | 2470 | 14.3 | too stable | –
4 | O=C([O-])CN1CCN2CCN(CC(=O)[O-])CCN(CC1)Cc1cccc(n1)-c1cnnn1Cc1cc(-c3ccccc3)cc(n1)C2.[Dy+3] [Ph{Dy}] | – | – | – | – | – | – | – | 100.0 | too stable | 146 | 0.5 | too stable | 3960
5 | O=C([O-])CN1CCN2CCN(CC(=O)[O-])CCN(CC1)Cc1cccc(n1)-c1cnnn1Cc1cc(-c3ccccc3)cc(n1)C2.[Sm+3] [Ph{Sm}] | 558 | – | – | too unstable | – | – | too unstable | – | – | 0.0608 | – | – | 4.62
6 | O=C([O-])CN1CCN2CCN(CC(=O)[O-])CCN(CC1)Cc1cccc(n1)-c1cnnn1Cc1cc(-c3ccccc3)cc(n1)C2.[Eu+3] [Ph{Eu}] | – | – | – | too unstable | – | – | too unstable | – | too stable | 0.304 | – | too stable | 15.8
7 | O=C([O-])CN1CCN2CCN(CC(=O)[O-])CCN(CC1)Cc1cccc(n1)-c1cnnn1Cc1cc(-c3ccccc3)cc(n1)C2.[Tb+3] [Ph{Tb}] | – | – | – | – | – | – | – | – | too stable | 15.5 | 0.0875 | too stable | 1320
8 | O=C([O-])CN1CCN2CCN(CC(=O)[O-])CCN(CC1)Cc1cccc(n1)-c1cnnn1Cc1cc(-c3ccccc3)cc(n1)C2.[Ho+3] [Ph{Ho}] | – | too stable | – | – | too stable | – | – | 100.0 | too stable | 550 | 2.84 | too stable | –
9 | O=C([O-])CN1CCN2CCN(CC(=O)[O-])CCN(CC1)Cc1cccc(n1)-c1cnnn1Cc1cc(-c3ccccc3)cc(n1)C2.[Tm+3] [Ph{Tm}] | – | too stable | too stable | – | too stable | too stable | – | 100.0 | too stable | – | 56.7 | too stable | –
10 | O=C([O-])CN1CCN2CCN(CC(=O)[O-])CCN(CC1)Cc1cccc(n1)-c1cnnn1Cc1cc(-c3ccccc3)cc(n1)C2.[La+3] [Ph{La}] | 0.103 | too unstable | too unstable | too unstable | too unstable | too unstable | too unstable | – | – | – | – | – | –
